The subject of one assay is Bacillus megaterium. Nature of the assay: Phosphate solubilization assay with Bacillus megaterium (liquid NBRIP, malachite green). It counts as cell-based. The settings on record: 100 ug/mL; for clearing (consumption) of insoluble phosphate in culture tubes, qualitative: B. megaterium in NBRIP. Here is the method: In some aspects, a compound disclosed herein, e.g., AB09, stimulates bacterial phosphate solubilization activity. […] Cultures of B. megaterium were grown in media containing only insoluble phosphorus with and without a compound such as AB09. At the start of the experiment, there was no detectable difference of orthophosphate levels in the growth media alone and media supplemented with B. megaterium and/or AB09. Orthophosphate was measured after 72 hours of bacterial growth. Specifically, A 5 mL culture of B. megaterium was seeded from a single colony into Nutrient Broth (NB) and grown overnight in a 30° C. shaker. The cell pellet was collected by centrifugation, washed twice and resuspended in water. The concentration of B. megaterium was measured using a Nanodrop OD600 reading. B. megaterium was inoculated into liquid NBRIP media, which contains insoluble tricalcium phosphate as its sole phosphorus source. The final concentration of B. megaterium in the NBRIP media was OD600=0.02 ([…]). NBRIP media was supplemented with ML in a 1% DMSO solution to a final concentration of 100 ug/ML or 1% DMSO (both were filter sterilized through a 0.2 uM filter). Cell counts at the start of the experiment (0 hours) and at 72 hours post inoculation were measured using dilution plating. At the experiment start and after 72 hours of growth, 1 mL of culture was collected from the culture tubes. The supernatant was collected by centrifugation (5 min at 13,000 rpm). The cleared supernatant was diluted […] in molecular grade water and used for orthophosphate analysis. The remaining 4 mL of supernatant were collected by centrifugation for pH readings. Orthophosphate was measured using the malachite-green phosphate method (BioAssay Systems Malachite Green Phosphate Assay Kit Catalog No: POMG-25H). Briefly, the sample is mixed with a solution of Malachite Green and molybdate, which forms a green complex with free orthophosphate from the sample. Data are quantified on a plate reader at 620 nm. Unknown samples were run with a standard curve of known concentrations of orthophosphate. […] Phosphate solubilization in NBRIP culture media is shown at experiment start (0 h) and after 72 hours of shaking at 30° C. The left axis corresponds to box plots and whisker plots of the concentration of solubilized phosphate in the bacterial supernatant. The right axis corresponds to the pH of the supernatant. n=7 culture tubes for each B. megaterium with and without ML, and n=3 culture tubes for no bacteria with and without AB09. The malachite green phosphate assay was performed in triplicate. […] In some instances, disclosed herein are experimental culture tubes of B. megaterium growing in NBRIP without ML (AB09; leftmost two tubes) and with 100 ug/mL ML (right three tubes).
A strain of Bacillus megaterium (B. megaterium) was isolated from Iowa field soil and confirmed its ability to solubilize phosphorus by observing a cleared zone (or halo) around B. megaterium colonies when grown on solid media (NBRIP+Agar) containing only in insoluble form of phosphorus, Ca3(PO4)2. Cultures of B. megaterium were then grown in liquid NBRIP (containing only insoluble Ca3(PO4)2) with and without AB09. The growth media supernatant was analyzed for orthophosphate at the start of the experiment (0 h) and after 72 hours of growth by the malachite green quantification method.
FIG. 1A illustrates phosphate solubilization in NBRIP culture media at experiment start (0 h) and after 72 hours of shaking at 30° C. The left axis corresponds to box plots and whisker plots of the concentration of available phosphate (orthophosphate) in the bacterial supernatant. […] The malachite green phosphate assay was performed in triplicate. FIG. 1B illustrates an example of experimental culture tubes of B. megaterium growing in NBRIP without AB09 (leftmost two tubes) and with 100 ug/mL AB09 (right three tubes). […]

In another assay the test system is innate soil microbes. Nature of the assay: Phosphate solubilization in commercial potting soil, sterile vs non-sterile. The format is cell-based. The settings on record: 12 days. The procedure:
In some aspects, a compound disclosed herein, e.g., AB09, stimulates phosphate solubilization of innate soil microbes. The induced phosphate solubilization enhancement was tested for in plant-free soil, which contains an innate diverse microflora of bacteria and fungi. Soil was evenly distributed into pots, half of which were pressure-sterilized in an autoclave. Half of the sterile and half of the non-sterile soil received a treatment. Control pots received a mock treatment. Pots were covered, incubated at room temperature, and orthophosphate levels were measured after twelve days. […] Three replicates of 20 mg air dried soil were measured from each pot and placed into 1.5 mL eppendorf tubes. […] In some instances, disclosed herein are measured phosphate levels at 12 days post treatment. […]
The effect of AB09 on a soil microbiome's innate ability to solubilize phosphorus was tested using commercially available soil, which contains a diverse microflora of bacteria. […] After 12 days of incubation soil phosphorus was extracted using the Bray-1P method and quantified using the malachite green assay.
Phosphate levels at 12 days post treatment. […] Orthophosphate was measured using the malachite-green phosphate method.
Orthophosphate was measured using the malachite-green phosphate method (BioAssay Systems Malachite Green Phosphate Assay Kit Catalog No: POMG-25H). […] Data are quantified on a plate reader at 620 nm. […]

For the compound `CC1=CC(Oc2c(C)occc2=O)OC1=O` (stereo not shown) [AB09, maltol lactone], the “pH of the growth media (supernatant)” value in the assay on Bacillus megaterium (72 hours, concurrent with phosphate solubilization increase) is on record as “decrease”. In addition, the “clearing (consumption) of insoluble phosphate in culture tubes, qualitative” value with Bacillus megaterium is “increased clearing”; in the assay on Bacillus megaterium (listed as ML) it was “Increased consumption”. Also, in the assay on Bacillus megaterium (NBRIP media with insoluble Ca3(PO4)2, 72 hours), the “average concentration of orthophosphate in B. megaterium cultures compared to control cultures” value was “significantly increased”. For the same compound, the phosphate solubilization increase result with Bacillus megaterium (NBRIP media, 72 hours, vs control B. megaterium cultures) was “two-fold”. In addition, in the assay with innate soil microbes (24 ug/mL in 1% DMSO, 25 mL per pot, Bray-P1 extraction, vs non-sterile control), the “level of orthophosphate in non-sterile soil” value is recorded as “significantly increased”. For the same compound, in the assay on innate soil microbes (autoclaved soil, 24 ug/mL), the “AB09-induced phosphorus enhancement in sterile soil” value is recorded as “not observed”.

(Values after patent US12239132B2, “Compounds and methods for increasing soil nutrient availability” (SOUND AGRICULTURE COMPANY, priority 2018, dated 2025).)
